Measurements published in US6737383B1, “Herbicidal oxadiazolidines” (priority 1999, dated 2004).

Assays:
[1] = system: rape; test: Test B pre/postemergence rape; assay type: in vivo, Brassica napus
How it was run: (§1)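 Herbicidal effect was estimated by eye on a ten-point control scale after plants spent twelve to sixteen days in a greenhouse following soil or foliar treatment. Foliar sprays targeted plants at one to four leaves; all doses were formulated in a non-phytotoxic solvent with surfactant.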

[2] = system: sugar beet; test: Test B pre/postemergence sugar beet; assay type: in vivo, Beta vulgaris
How it was run: as §1

[3] = system: crabgrass; test: Test B pre/postemergence crabgrass; assay type: in vivo, Digitaria sanguinalis
How it was run: as §1

[4] = system: surinam grass; test: Test B pre/postemergence surinam grass; assay type: in vivo, Brachiaria decumbens
How it was run: as §1

[5] = system: rice; test: Test B flood test rice; assay type: in vivo, Oryza sativa
How it was run: (§2)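 Each value is a visual injury score relative to controls, with 10 meaning complete control and 0 no effect. Evaluation took place twelve to sixteen days after the 2-leaf-stage plants were treated and kept in the greenhouse.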

[6] = system: bamyardgrass; test: Test B flood test barnyardgrass; assay type: in vivo, Echinochloa crus-galli
How it was run: as §2

[7] = system: wild oat; test: Test B pre/postemergence wild oat; assay type: in vivo, Avena fatua
How it was run: as §1

[8] = system: corn; test: Test B pre/postemergence corn; assay type: in vivo, Zea mays
How it was run: as §1

[9] = system: smallflower flatsedge; test: Test B flood test smallflower flatsedge; assay type: in vivo, Cyperus difformis
How it was run: as §2

[10] = system: soybean; test: Test B pre/postemergence soybean; assay type: in vivo, Glycine max
How it was run: as §1

[11] = system: blackgrass; test: Test B pre/postemergence blackgrass; assay type: in vivo, Alopecurus myosuroides
How it was run: as §1

[12] = system: bedstraw; test: Test B pre/postemergence bedstraw; assay type: in vivo, Galium aparine; conditions: Preemergence
How it was run: as §1

[13] = system: wheat; test: Test B pre/postemergence wheat; assay type: in vivo, Triticum aestivum
How it was run: as §1

[14] = system: velvetleaf; test: Test B pre/postemergence velvetleaf; assay type: in vivo, Abutilon theophrasti
How it was run: as §1

[15] = system: cocklebur; test: Test B pre/postemergence cocklebur; assay type: in vivo, Xanthium strumarium
How it was run: as §1

[16] = system: purple nutsedge; test: Test B pre/postemergence purple nutsedge; assay type: in vivo, Cyperus rotundus
How it was run: as §1

[17] = system: duck salad; test: Test B flood test duck salad; assay type: in vivo, Heteranthera limosa
How it was run: as §2

[18] = system: morningglory; test: Test B pre/postemergence morningglory; assay type: in vivo, Ipomoea hederacea
How it was run: as §1

[19] = system: giant foxtail; test: Test B pre/postemergence giant foxtail; assay type: in vivo, Setaria faberii
How it was run: as §1

[20] = system: pigweed; test: Test B pre/postemergence pigweed; assay type: in vivo, Amaranthus retroflexus
How it was run: as §1

[21] = Postemergence, Rate 62 g/ha, scale of 0 to 10, 0 is no effect, 10 is complete control
[22] = Postemergence, Rate 125 g/ha, scale of 0 to 10 where 0 is no effect and 10 is complete control
[23] = Postemergence, Rate 250 g/ha, scale of 0 to 10, 0 is no effect, 10 is complete control
[24] = Postemergence, Rate 500 g/ha, scale of 0 to 10 where 0 is no effect and 10 is complete control
[25] = Preemergence, Rate 62 g/ha, scale 0 to 10 (0 no effect, 10 complete control)
[26] = Preemergence, Rate 125 g/ha, scale of 0 to 10 where 0 is no effect and 10 is complete control
[27] = Preemergence, Rate 500 g/ha, scale of 0 to 10 where 0 is no effect and 10 is complete control
[28] = Rate 62 g/ha, flood test species, Pre-emergence, visual evaluation after twelve to sixteen days
[29] = Rate 125 g/ha, under heading Pre-emergence, flood test species, visual evaluation after twelve to sixteen days
[30] = Rate 250 g/ha, Pre-emergence (flood test species), scale 0 to 10, 0 is no effect, 10 is complete control
[31] = Rate 500 g/ha, Pre-emergence section of Table B, 0 to 10 scale (0 no effect, 10 complete control)

For `CC(C)N(C(=O)n1oc(=O)n(C(C)CBr)c1=O)c1ccc(F)cc1F` (stereo not drawn) [Compound 594], the “Rape plant response rating” value [1, 21] was 0, the “Plant response rating, Rape” value [1, 22] was 0 and the “Rape plant response rating” value [1, 23] was 0. For the same compound, the “Plant response rating, Rape” value [1, 24] was 0, the “Rape plant response rating” value [1, 25] was 0 and the “Rape plant response rating” value [1, 26] was 0. The “Plant response rating, Rape” value [1, 27] was 9, the “Plant response rating, Sugarbeets” value [2, 22] was 5 and the “Sugarbeets plant response rating” value [2, 23] was 5. The “Plant response rating, Sugarbeets” value [2, 24] was 5, the “Sugarbeets plant response rating” value [2, 25] was 0 and the “Sugarbeets plant response rating” value [2, 26] was 0. The “Plant response rating, Sugarbeets” value [2, 27] was 8, the “Crabgrass plant response rating” value [3, 21] was 5 and the “Plant response rating, Crabgrass” value [3, 22] was 7. The “Crabgrass plant response rating” value [3, 23] was 9, the “Plant response rating, Crabgrass” value [3, 24] was 9 and the “Crabgrass plant response rating” value [3, 25] was 9. The “Crabgrass plant response rating” value [3, 26] was 9, the “Plant response rating, Crabgrass” value [3, 27] was 9 and the “B. signalgrass plant response rating” value [4, 21] was 0. For the same compound, the “Plant response rating, B. signalgrass” value [4, 22] was 0, the “B. signalgrass plant response rating” value [4, 23] was 2 and the “Plant response rating, B. signalgrass” value [4, 24] was 3. For the same compound, the “B. signalgrass plant response rating” value [4, 25] was 3, the “B. signalgrass plant response rating” value [4, 26] was 3 and the “B. signalgrass plant response rating (0 to 10 scale, 0 is no effect, 10 is complete control)” value ([4]; Preemergence, Rate 250 g/ha) was 5. The “B. signalgrass plant response rating” value [4, 27] was 7, the “Plant response rating, Rice (0 to 10 scale, 0 is no effect, 10 is complete control)” value [5, 28] was 0 and the “Rice plant response rating (0 to 10 scale, 0 is no effect, 10 is complete control)” value [5, 29] was 0. The “Rice plant response rating” value [5, 30] was 0, the “Rice plant response rating” value [5, 31] was 0 and the “Plant response rating, Barnyardgrass (0 to 10 scale, 0 is no effect, 10 is complete control)” value [6, 28] was 0. For the same compound, the “Barnyardgrass plant response rating (0 to 10 scale, 0 is no effect, 10 is complete control)” value [6, 29] was 0, the “Barnyardgrass plant response rating” value [6, 30] was 0 and the “Barnyardgrass plant response rating” value [6, 31] was 0. The “Plant response rating, Wild oats” value [7, 22] was 0, the “Wild oats plant response rating” value [7, 23] was 0 and the “Plant response rating, Wild oats” value [7, 24] was 0. The “Wild oats plant response rating” value [7, 25] was 0, the “Wild oats plant response rating” value [7, 26] was 0 and the “Plant response rating, Wild oats” value [7, 27] was 5. The “Corn plant response rating” value [8, 21] was 0, the “Plant response rating, Corn” value [8, 22] was 0 and the “Corn plant response rating” value [8, 23] was 0. The “Plant response rating, Corn” value [8, 24] was 0, the “Corn plant response rating” value [8, 25] was 0 and the “Corn plant response rating” value [8, 26] was 0. For the same compound, the “Corn plant response rating (0 to 10 scale)” value ([8]; Preemergence, Rate 250 g/ha) was 2, the “Plant response rating, Corn” value [8, 27] was 4 and the “Plant response rating, S. Flatsedge (0 to 10 scale, 0 is no effect, 10 is complete control)” value [9, 28] was 0. For the same compound, the “S. Flatsedge plant response rating (0 to 10 scale, 0 is no effect, 10 is complete control)” value [9, 29] was 0, the “S. Flatsedge plant response rating” value [9, 30] was 0 and the “S. Flatsedge plant response rating” value [9, 31] was 0. For the same compound, the “Plant response rating, Soybean” value [10, 22] was 0, the “Plant response rating, Soybean” value [10, 24] was 4 and the “Soybean plant response rating” value [10, 25] was 0. The “Soybean plant response rating” value [10, 26] was 0, the “Plant response rating, Soybean” value [10, 27] was 4 and the “Plant response rating, Blackgrass” value [11, 22] was 5. The “Blackgrass plant response rating” value [11, 23] was 5, the “Plant response rating, Blackgrass” value [11, 24] was 5 and the “Blackgrass plant response rating” value [11, 25] was 5. For the same compound, the “Blackgrass plant response rating” value [11, 26] was 5, the “Blackgrass plant response rating (0 to 10 scale)” value ([11]; Preemergence, Rate 250 g/ha) was 9 and the “Blackgrass plant response rating” value [11, 27] was 9. For the same compound, the “Bedstraw plant response rating” value ([12]; Rate 62 g/ha, scale 0 to 10 (0 no effect, 10 complete control)) was 0, the “Bedstraw plant response rating” value ([12]; Rate 125 g/ha, scale of 0 to 10 where 0 is no effect and 10 is complete control) was 0 and the “Bedstraw plant response rating (0 to 10 scale)” value ([12]; Rate 250 g/ha) was 2. The “Bedstraw plant response rating” value ([12]; Rate 500 g/ha, scale of 0 to 10 where 0 is no effect and 10 is complete control) was 9, the “Plant response rating, Wheat” value [13, 22] was 0 and the “Wheat plant response rating” value [13, 23] was 0. The “Plant response rating, Wheat” value [13, 24] was 0, the “Wheat plant response rating” value [13, 25] was 0 and the “Wheat plant response rating” value [13, 26] was 0. The “Plant response rating, Wheat” value [13, 27] was 2, the “Plant response rating, Velvetleaf” value [14, 22] was 3 and the “Velvetleaf plant response rating” value [14, 23] was 3. For the same compound, the “Plant response rating, Velvetleaf” value [14, 24] was 5, the “Velvetleaf plant response rating” value [14, 25] was 2 and the “Velvetleaf plant response rating” value [14, 26] was 4. The “Plant response rating, Velvetleaf” value [14, 27] was 7, the “Cocklebur plant response rating” value [15, 21] was 0 and the “Plant response rating, Cocklebur” value [15, 22] was 0. For the same compound, the “Cocklebur plant response rating” value [15, 23] was 3, the “Plant response rating, Cocklebur” value [15, 24] was 4 and the “Cocklebur plant response rating” value [15, 26] was 0. For the same compound, the “Cocklebur plant response rating (0 to 10 scale)” value ([15]; Preemergence, Rate 250 g/ha) was 0, the “Plant response rating, Cocklebur” value [15, 27] was 2 and the “Nutsedge plant response rating” value [16, 21] was 0. For the same compound, the “Plant response rating, Nutsedge” value [16, 22] was 0, the “Nutsedge plant response rating” value [16, 23] was 3 and the “Plant response rating, Nutsedge” value [16, 24] was 3. For the same compound, the “Nutsedge plant response rating” value [16, 25] was 0, the “Nutsedge plant response rating” value [16, 26] was 0 and the “Plant response rating, Nutsedge” value [16, 27] was 6. The “Plant response rating, Ducksalad (0 to 10 scale, 0 is no effect, 10 is complete control)” value [17, 28] was 0, the “Ducksalad plant response rating (0 to 10 scale, 0 is no effect, 10 is complete control)” value [17, 29] was 0 and the “Ducksalad plant response rating” value [17, 30] was 0. For the same compound, the “Ducksalad plant response rating” value [17, 31] was 0, the “Morningglory plant response rating” value [18, 21] was 0 and the “Plant response rating, Morningglory” value [18, 22] was 2. The “Morningglory plant response rating” value [18, 23] was 2, the “Plant response rating, Morningglory” value [18, 24] was 7 and the “Morningglory plant response rating” value [18, 25] was 0. For the same compound, the “Morningglory plant response rating” value [18, 26] was 0, the “Plant response rating, Morningglory” value [18, 27] was 6 and the “Giant foxtail plant response rating” value [19, 21] was 6. For the same compound, the “Plant response rating, Giant foxtail” value [19, 22] was 7, the “Giant foxtail plant response rating” value [19, 23] was 7 and the “Plant response rating, Giant foxtail” value [19, 24] was 9. The “Giant foxtail plant response rating” value [19, 25] was 9, the “Giant foxtail plant response rating” value [19, 26] was 9 and the “Plant response rating, Giant foxtail” value [19, 27] was 10. For the same compound, the “Plant response rating, Redroot pigweed” value [20, 22] was 0, the “Redroot pigweed plant response rating” value [20, 23] was 3 and the “Plant response rating, Redroot pigweed” value [20, 24] was 4. For the same compound, the “Redroot pigweed plant response rating” value [20, 25] was 0, the “Redroot pigweed plant response rating” value [20, 26] was 0 and the “Plant response rating, Redroot pigweed” value [20, 27] was 10.
